The record followed here is article PMC3117672 (ChemMedChem, 2010).

The test concerns the target mPTPB (Mycobacterium tuberculosis, UniProt I6WXK4). The note with it: read-out: IC50 for mPTPB; pH 7.

Chain of mPTPB (I6WXK4 whole entry, looked up): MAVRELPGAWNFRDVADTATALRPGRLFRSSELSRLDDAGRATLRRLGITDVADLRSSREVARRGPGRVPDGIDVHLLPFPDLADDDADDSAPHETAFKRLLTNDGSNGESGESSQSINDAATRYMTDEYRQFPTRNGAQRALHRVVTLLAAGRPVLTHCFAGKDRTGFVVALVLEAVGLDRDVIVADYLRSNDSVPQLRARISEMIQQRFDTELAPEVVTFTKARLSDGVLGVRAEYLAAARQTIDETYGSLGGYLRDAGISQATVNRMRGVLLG

As for `C#CCOc1c(C(=O)O)cc2cc(Cl)cc(OCC#C)c2c1Cl` [Compound L5], the half-inhibitory concentration (IC50) amounted to 75 µM.
